The values that follow come from ChEMBL document CHEMBL2424579, “Quinazolin-4-one derivatives as selective histone deacetylase-6 inhibitors for the treatment of Alzheimer's disease” (J Med Chem, 2013).

Activity calls are given as the source filed them. The rule behind the calls is not given here.

Data set [1] relates to PC-12. In words: Inhibition of HDAC6 in rat PC12 cells assessed as induction of alpha-tubulin acetylation after 48 hrs by Western blotting analysis. It counts as cell-based. On the technique in general: A western blot detects proteins with antibodies after separation by electrophoresis.
The test system of data set [2] is PC-12. In words: Induction iof GAP-43 protein expression in rat PC12 cells after 48 hrs by Western blotting analysis. The format is functional, cell-based.
The subject of data set [3] is SH-SY5Y. In words: Increase of synaptic activity in human SH-SY5Y cells after 5 days by fluorescence assay. It counts as functional, cell-based. The following applies: 120 h.
In data set [4] the test system is SH-SY5Y. In words: Induction of neurite outgrowth in human SH-SY5Y cells after 5 days. It counts as functional, cell-based. The conditions noted are these: 120 h.
For data set [5], the system named is PC-12. In words: Increase of synaptic activity in rat PC12 cells after 5 days by fluorescence assay. The conditions noted are these: PC-12, 120 h. It counts as functional, cell-based.
Data set [6] has as its system SH-SY5Y. Briefly: Induction of neurite outgrowth in human SH-SY5Y cells at 10 uM after 5 days. The format is functional, cell-based.
Data set [7] concerns PC-12. Briefly: Induction of neurite outgrowth in rat PC12 cells after 5 days. The conditions noted are these: PC-12, 120 h. The format is functional, cell-based.
The subject of data set [8] is PC-12. In words: Induction of neurite outgrowth in rat PC12 cells at 10 uM after 5 days. The format is functional, cell-based.
In a further data set the target is T1, Histone deacetylase 11 (Homo sapiens, UniProt Q96DB2).
T1 sequence (Q96DB2 whole entry): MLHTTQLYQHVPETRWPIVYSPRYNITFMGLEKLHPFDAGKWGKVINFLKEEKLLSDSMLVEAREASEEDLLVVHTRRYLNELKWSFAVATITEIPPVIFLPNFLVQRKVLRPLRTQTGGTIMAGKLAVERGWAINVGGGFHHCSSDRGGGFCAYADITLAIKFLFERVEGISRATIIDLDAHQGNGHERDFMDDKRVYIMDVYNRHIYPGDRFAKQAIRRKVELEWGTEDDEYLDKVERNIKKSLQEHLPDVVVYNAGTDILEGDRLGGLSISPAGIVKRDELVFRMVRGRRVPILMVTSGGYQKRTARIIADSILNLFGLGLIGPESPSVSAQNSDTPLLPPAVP
In words: Inhibition of human recombinant HDAC11 expressed in baculovirus/sf9 cells using RHKKAc as substrate.

The target in data set [9] is T2, Protein deacetylase HDAC6 (Homo sapiens, UniProt Q9UBN7).
T2 sequence (Q9UBN7 whole entry): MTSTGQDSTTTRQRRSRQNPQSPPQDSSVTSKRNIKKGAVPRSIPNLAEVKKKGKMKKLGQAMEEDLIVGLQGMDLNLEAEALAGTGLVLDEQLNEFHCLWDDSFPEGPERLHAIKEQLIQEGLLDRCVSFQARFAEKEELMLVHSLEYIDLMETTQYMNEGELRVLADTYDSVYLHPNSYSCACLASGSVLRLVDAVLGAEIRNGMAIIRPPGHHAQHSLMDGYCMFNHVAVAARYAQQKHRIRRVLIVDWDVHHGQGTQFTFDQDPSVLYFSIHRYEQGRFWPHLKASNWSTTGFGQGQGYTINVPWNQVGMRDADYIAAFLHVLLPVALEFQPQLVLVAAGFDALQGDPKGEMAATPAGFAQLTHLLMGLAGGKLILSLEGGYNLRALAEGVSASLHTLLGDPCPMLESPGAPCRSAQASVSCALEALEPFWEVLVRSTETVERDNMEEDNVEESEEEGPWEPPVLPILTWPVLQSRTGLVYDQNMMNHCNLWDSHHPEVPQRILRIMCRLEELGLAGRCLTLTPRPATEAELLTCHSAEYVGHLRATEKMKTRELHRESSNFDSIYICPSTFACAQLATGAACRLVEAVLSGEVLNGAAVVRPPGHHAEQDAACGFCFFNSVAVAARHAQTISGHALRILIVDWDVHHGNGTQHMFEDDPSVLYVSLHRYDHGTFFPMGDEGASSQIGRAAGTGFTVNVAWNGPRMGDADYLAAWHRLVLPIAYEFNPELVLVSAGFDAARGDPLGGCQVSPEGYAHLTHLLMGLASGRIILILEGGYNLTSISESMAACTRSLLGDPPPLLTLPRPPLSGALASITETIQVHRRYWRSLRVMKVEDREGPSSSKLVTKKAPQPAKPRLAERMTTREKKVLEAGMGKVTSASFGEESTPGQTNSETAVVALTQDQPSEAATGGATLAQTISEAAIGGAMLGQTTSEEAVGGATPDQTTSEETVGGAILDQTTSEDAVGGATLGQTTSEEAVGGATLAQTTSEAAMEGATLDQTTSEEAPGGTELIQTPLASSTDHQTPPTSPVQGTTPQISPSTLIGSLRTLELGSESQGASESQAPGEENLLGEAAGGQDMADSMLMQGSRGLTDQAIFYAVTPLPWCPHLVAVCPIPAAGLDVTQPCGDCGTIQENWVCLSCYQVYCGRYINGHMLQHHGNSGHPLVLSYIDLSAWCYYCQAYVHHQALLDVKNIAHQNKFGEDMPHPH
In words: Inhibition of human recombinant HDAC6 expressed in baculovirus/sf9 cells using RHKKAc as substrate.

The next data set deals with T3, Histone deacetylase 8 (Homo sapiens, UniProt Q9BY41).
T3 sequence (Q9BY41 whole entry): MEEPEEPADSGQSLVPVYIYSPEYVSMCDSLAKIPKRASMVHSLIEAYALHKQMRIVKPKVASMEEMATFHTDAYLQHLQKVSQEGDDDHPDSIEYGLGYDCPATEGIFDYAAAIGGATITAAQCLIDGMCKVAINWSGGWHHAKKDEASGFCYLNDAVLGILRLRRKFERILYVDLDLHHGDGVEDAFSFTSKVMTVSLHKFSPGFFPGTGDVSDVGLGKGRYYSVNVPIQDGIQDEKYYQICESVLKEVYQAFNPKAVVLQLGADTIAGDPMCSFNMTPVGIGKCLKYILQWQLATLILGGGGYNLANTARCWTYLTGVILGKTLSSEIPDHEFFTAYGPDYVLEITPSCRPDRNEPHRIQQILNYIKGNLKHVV
In words: Inhibition of human recombinant HDAC8 expressed in baculovirus/sf9 cells using RHKAcKAc as substrate.

Data set [10] deals with T4, Histone deacetylase 2 (Homo sapiens, UniProt Q92769). Briefly: Inhibition of human recombinant HDAC2 expressed in baculovirus/sf9 cells using RHKKAc as substrate.
T4 sequence (Q92769 whole entry): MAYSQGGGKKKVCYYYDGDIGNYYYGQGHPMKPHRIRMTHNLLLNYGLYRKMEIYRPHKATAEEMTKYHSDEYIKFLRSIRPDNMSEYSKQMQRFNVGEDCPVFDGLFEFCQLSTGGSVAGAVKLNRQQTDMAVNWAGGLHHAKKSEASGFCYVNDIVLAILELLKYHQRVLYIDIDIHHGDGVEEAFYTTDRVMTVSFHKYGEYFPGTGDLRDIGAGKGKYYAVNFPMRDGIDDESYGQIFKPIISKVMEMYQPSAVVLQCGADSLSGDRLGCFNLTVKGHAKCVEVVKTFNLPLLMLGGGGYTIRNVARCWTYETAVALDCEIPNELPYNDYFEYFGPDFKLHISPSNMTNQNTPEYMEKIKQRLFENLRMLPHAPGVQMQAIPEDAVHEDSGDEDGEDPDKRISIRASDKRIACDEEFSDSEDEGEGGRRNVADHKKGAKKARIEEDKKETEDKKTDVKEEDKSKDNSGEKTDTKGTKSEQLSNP
A further data set has as its target Cytochrome P450 2C19 (Homo sapiens, UniProt P33261). In words: Inhibition of CYP2C19 (unknown origin) using 3-cyano-7-ethoxycoumarin as substrate. The format is ADME.
The next data set relates to Vero. Briefly: Cytotoxicity against african green monkey Vero cells at 25 uM. The format is cell-based. The conditions noted are these: chlorocebus sabaeus.
The nature of data set [11]: Cytotoxicity against human SH-SY5Y cells at 25 uM. It counts as cell-based.
The test system of data set [12] is PC-12. In words: Cytotoxicity against rat PC12 cells at 25 uM. The format is cell-based. The following applies: pc-12, 25 µM.
Another data set addresses Cytochrome P450 1A2 (Homo sapiens, UniProt P05177). In words: Inhibition of CYP1A2 (unknown origin) using 3-cyano-7-ethoxycoumarin as substrate. It counts as ADME.
The next data set deals with Cytochrome P450 2D6 (Homo sapiens, UniProt P10635). In words: Inhibition of CYP2D6 (unknown origin) using 3-cyano-7-ethoxycoumarin as substrate. It counts as ADME.
Cytochrome P450 2D6, sequence (P10635 whole entry): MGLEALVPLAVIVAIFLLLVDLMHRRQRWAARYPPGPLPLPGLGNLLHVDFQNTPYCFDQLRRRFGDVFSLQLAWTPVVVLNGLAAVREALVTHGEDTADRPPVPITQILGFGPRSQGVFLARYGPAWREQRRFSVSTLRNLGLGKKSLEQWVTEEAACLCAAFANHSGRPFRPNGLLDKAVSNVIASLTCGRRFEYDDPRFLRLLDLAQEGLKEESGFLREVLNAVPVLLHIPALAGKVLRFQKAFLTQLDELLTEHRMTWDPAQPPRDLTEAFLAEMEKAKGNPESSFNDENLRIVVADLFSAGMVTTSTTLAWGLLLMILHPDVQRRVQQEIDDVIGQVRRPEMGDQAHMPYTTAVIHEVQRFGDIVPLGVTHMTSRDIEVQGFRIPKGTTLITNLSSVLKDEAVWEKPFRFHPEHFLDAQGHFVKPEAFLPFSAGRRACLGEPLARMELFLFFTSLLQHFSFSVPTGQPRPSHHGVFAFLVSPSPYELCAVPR
A further data set addresses Cytochrome P450 2C9 (Homo sapiens, UniProt P11712). In words: Inhibition of CYP2C9 (unknown origin) using Vivid OOMR as substrate. The format is ADME.
The next data set has as its target Cytochrome P450 3A4 (Homo sapiens, UniProt P08684). In words: Inhibition of CYP3A4 (unknown origin) using Vivid BOMR as substrate. The format is ADME.
Data set [13] addresses Poly [ADP-ribose] polymerase 1 (Homo sapiens) (UniProt P09874). In words: Inhibition of PARP1 (unknown origin) up to 25 uM.
Data set [14] has as its target Histone deacetylase 11 (Homo sapiens) (UniProt Q96DB2). In words: Inhibition of human recombinant HDAC11 expressed in baculovirus/sf9 cells using RHKKAc as substrate at 1 uM.
Data set [15] concerns the target Polyamine deacetylase HDAC10 (Homo sapiens) (UniProt Q969S8). In words: Inhibition of human recombinant HDAC10 expressed in baculovirus/sf9 cells using RHKKAc as substrate at 1 uM.
In data set [16] the target is Protein deacetylase HDAC6 (Homo sapiens) (UniProt Q9UBN7). In words: Inhibition of human recombinant HDAC6 expressed in baculovirus/sf9 cells using RHKKAc as substrate at 1 uM.
The target of data set [17] is T4, Histone deacetylase 2. Briefly: Inhibition of human recombinant HDAC2 expressed in baculovirus/sf9 cells using RHKKAc as substrate at 1 uM.
In data set [18] the target is Histone deacetylase 8 (Homo sapiens) (UniProt Q9BY41). In words: Inhibition of human recombinant HDAC8 expressed in baculovirus/sf9 cells using RHKAcKAc as substrate at 1 uM.
Data set [19] has as its target T5, Histone deacetylase 1 (Homo sapiens, UniProt Q13547). Briefly: Inhibition of human recombinant HDAC1 expressed in baculovirus/sf9 cells using RHKKAc as substrate at 1 uM.
For data set [20], the target named is Amyloid-beta precursor protein (Homo sapiens, UniProt P05067). In words: Inhibition of amyloid beta aggregation (unknown origin) after 4 hrs by thioflavin S assay in absence of Zn2+.
The subject of data set [21] is PC-12. In words: Inhibition of HDAC6 in rat PC12 cells assessed as acetylation of histone H3 at 10 uM after 48 hrs by Western blotting analysis. The format is cell-based.
For data set [22], the system named is PC-12. Briefly: Inhibition of HDAC6 in rat PC12 cells assessed as induction of alpha-tubulin acetylation at 10 uM after 48 hrs by Western blotting analysis. The format is cell-based.
Data set [23] concerns PC-12. Briefly: Induction iof GAP-43 protein expression in rat PC12 cells at 0.1 uM after 48 hrs by Western blotting analysis. The format is functional, cell-based.
Data set [24] deals with T5, Histone deacetylase 1. Briefly: Inhibition of human recombinant HDAC1 expressed in baculovirus/sf9 cells using RHKKAc as substrate.
Data set [25] deals with Mus musculus. Briefly: Antialzheimer activity in wild type learning-impaired Balb/c mouse model with hippocampal lesions at 10 mg/kg, ip administered for 30 days by rotarod test relative to vehicle-treated control. The following applies: Hippocampus, TDE = time-dependent effect.
Data set [26] has as its system Mus musculus. Briefly: Antialzheimer activity in wild type learning-impaired Balb/c mouse model with hippocampal lesions assessed as increase in acetylated alpha-tubulin level in hippocampus region at 10 mg/kg, ip administered for 30 days by rotarod test. (In general: In the rotarod test animals must keep their balance on a rotating rod.)

Cytochrome P450 2C19, sequence (P33261 whole entry): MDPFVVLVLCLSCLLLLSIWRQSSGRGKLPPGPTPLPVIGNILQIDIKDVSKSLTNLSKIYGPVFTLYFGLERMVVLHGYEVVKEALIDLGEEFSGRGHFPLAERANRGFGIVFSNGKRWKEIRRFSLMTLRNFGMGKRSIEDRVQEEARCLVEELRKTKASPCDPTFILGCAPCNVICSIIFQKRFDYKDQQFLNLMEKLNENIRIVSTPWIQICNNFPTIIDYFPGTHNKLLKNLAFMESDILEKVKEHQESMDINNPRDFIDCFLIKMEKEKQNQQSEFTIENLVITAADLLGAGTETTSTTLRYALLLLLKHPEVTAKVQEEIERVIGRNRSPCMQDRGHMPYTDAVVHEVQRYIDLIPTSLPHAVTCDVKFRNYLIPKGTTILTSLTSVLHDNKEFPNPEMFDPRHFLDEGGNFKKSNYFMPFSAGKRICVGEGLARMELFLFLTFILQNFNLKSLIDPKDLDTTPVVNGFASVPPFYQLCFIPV
Cytochrome P450 2C9, sequence (P11712 whole entry): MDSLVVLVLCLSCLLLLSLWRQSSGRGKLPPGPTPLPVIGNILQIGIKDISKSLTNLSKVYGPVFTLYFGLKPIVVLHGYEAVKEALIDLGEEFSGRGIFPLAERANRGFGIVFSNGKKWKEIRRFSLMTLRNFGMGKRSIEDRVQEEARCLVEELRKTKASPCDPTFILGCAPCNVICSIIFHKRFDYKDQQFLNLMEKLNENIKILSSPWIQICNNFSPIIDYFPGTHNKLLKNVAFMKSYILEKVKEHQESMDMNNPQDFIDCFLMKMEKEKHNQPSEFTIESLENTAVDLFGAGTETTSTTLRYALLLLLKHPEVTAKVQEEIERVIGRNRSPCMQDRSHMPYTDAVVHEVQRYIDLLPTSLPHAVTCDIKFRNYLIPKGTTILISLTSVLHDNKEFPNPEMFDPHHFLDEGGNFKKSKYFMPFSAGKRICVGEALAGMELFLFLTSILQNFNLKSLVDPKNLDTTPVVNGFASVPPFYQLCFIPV
Poly [ADP-ribose] polymerase 1 (Homo sapiens), sequence (P09874 whole entry): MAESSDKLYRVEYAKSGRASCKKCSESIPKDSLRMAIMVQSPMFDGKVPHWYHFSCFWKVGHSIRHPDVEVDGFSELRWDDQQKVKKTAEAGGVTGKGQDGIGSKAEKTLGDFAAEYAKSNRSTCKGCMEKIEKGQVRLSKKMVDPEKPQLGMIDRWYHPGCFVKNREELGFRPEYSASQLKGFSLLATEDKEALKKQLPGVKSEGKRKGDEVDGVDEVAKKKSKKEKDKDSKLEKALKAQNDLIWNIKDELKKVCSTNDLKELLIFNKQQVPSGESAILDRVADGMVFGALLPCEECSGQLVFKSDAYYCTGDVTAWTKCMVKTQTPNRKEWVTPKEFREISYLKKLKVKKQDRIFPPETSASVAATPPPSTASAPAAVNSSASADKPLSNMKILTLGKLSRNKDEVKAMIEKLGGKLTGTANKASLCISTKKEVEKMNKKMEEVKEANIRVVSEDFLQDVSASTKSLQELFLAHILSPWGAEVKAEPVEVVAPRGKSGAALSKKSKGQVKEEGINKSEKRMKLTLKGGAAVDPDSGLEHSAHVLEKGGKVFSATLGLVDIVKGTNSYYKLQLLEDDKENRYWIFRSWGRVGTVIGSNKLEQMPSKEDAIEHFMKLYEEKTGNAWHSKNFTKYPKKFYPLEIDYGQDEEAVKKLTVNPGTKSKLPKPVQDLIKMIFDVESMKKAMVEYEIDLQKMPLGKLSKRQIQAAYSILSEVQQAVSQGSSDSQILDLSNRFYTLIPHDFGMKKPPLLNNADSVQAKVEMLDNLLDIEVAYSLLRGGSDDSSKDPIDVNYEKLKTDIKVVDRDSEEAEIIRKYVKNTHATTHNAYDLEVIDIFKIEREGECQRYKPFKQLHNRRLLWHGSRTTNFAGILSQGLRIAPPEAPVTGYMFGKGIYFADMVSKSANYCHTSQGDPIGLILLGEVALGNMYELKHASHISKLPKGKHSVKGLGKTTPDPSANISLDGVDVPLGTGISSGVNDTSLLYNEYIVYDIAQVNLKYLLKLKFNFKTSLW
T5 sequence (Q13547 whole entry): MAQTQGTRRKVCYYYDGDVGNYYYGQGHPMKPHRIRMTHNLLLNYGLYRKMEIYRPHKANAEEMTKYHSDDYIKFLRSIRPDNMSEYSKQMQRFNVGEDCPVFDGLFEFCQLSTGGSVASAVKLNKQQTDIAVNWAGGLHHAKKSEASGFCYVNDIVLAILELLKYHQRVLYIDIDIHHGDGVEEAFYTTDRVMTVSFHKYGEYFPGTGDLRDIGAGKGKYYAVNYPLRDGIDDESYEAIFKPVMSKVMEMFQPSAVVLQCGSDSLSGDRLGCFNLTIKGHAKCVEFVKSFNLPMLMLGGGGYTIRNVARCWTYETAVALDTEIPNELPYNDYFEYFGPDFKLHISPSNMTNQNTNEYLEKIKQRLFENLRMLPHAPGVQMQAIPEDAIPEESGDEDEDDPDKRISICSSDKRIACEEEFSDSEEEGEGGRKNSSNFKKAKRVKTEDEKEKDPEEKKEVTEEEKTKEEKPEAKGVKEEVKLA
Cytochrome P450 1A2, sequence (P05177 whole entry): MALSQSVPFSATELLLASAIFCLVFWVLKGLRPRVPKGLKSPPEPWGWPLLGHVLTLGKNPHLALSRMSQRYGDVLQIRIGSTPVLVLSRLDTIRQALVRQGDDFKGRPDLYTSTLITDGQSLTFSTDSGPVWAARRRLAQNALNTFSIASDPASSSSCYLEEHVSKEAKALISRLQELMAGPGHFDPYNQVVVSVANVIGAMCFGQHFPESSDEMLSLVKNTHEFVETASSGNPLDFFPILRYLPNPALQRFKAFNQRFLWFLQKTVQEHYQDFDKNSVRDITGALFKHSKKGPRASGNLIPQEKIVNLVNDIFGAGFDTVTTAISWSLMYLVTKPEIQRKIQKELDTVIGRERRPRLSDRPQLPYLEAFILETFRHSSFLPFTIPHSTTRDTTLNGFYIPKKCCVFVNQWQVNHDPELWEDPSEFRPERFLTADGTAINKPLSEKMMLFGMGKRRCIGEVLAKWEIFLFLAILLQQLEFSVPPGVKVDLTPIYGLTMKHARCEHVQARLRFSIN
Cytochrome P450 3A4, sequence (P08684 whole entry): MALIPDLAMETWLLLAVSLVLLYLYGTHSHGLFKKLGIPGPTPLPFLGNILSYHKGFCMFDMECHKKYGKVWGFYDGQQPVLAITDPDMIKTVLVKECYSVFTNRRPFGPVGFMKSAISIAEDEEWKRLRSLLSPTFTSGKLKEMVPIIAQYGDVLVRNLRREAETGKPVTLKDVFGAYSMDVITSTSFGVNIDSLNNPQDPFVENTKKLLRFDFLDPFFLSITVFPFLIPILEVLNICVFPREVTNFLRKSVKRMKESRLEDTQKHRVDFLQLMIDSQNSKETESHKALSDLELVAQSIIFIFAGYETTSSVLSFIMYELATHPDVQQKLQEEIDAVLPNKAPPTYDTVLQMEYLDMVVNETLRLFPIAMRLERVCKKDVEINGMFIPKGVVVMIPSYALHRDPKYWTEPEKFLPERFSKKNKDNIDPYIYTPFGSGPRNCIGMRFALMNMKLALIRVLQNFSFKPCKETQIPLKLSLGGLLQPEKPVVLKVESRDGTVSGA

Take `CCc1nc2c(Cc3ccc(C(=O)NO)cc3)cccc2c(=O)n1CCc1ccccc1`: in the data set with PC-12 [1], the inhibition entry was “Dose-dependent effect”. For the same compound, the Activity result with PC-12 [2] was “Dose-dependent effect”; in the data set on Vero it was “Non-toxic”; in data set [11], “Non-toxic”; with PC-12 [12], “Non-toxic”. Further, the EC50 in the data set with SH-SY5Y [3] was 8.3 µM; in the data set with SH-SY5Y [4] it was 8.1 µM; in the data set on PC-12 [5], 6.7 µM; in the data set on PC-12 [7], 6.2 µM. Further, the result in the data set with SH-SY5Y [6] and in the data set with PC-12 [8] was Active. Moreover, the IC50 on Histone deacetylase 11 is 37.1 µM; in data set [9] it was 0.079 µM; on Histone deacetylase 8, 0.282 µM; on Histone deacetylase 2 [10], above 10 µM; against Cytochrome P450 2C19, 3.3 µM; at Cytochrome P450 1A2, above 10 µM. Also, the IC50 against Cytochrome P450 2D6 is above 10 µM; against Cytochrome P450 2C9, 2.1 µM; on Cytochrome P450 3A4, 0.1 µM. The inhibition entry in data set [13] was “inactive”.
On to `CCc1nc2c(-c3ccc(C(=O)NO)cc3)cccc2c(=O)n1CCc1ccccc1`, for which the inhibition result (in data set [14]; in [15]; on Histone deacetylase 2 [17]; on Histone deacetylase 1 [19]) was “inactive” in each case. Also, the inhibition in data set [16] and in data set [18] was 50% throughout.
For the compound `Cc1nc2cc(/C=C/C(=O)NO)ccc2c(=O)n1CCc1ccccc1`, the IC50 was above 50 µM in data set [20]; 4.08 µM on Histone deacetylase 11; 0.029 µM in data set [9]; 1.75 µM at Histone deacetylase 8; 1.88 µM on Histone deacetylase 1 [24]; 6.45 µM on Histone deacetylase 2 [10]. For the same compound, the IC50 was above 10 µM against Cytochrome P450 2C19; above 10 µM against Cytochrome P450 1A2; above 10 µM at Cytochrome P450 2D6; 9.1 µM at Cytochrome P450 2C9; 6.5 µM on Cytochrome P450 3A4. Besides, the inhibition result with PC-12 [21] and in the data set on PC-12 [22] was “Active” each time. In addition, the outcome with PC-12 [23], with SH-SY5Y [6], in the data set on PC-12 [8] and in the data set on Mus musculus [26] was Active. The Activity entry with PC-12 [2] is “Dose-dependent effect”; with Vero, “Non-toxic”; in data set [11] it was “Non-toxic”; in the data set with PC-12 [12] it was “Non-toxic”; in the data set on Mus musculus [25] it was “tde”. The EC50 came to 6.8 µM in the data set on SH-SY5Y [3], 9.2 µM in the data set on SH-SY5Y [4], 6.5 µM in the data set on PC-12 [5] and 7.3 µM in the data set with PC-12 [7]. Also, in [13], the inhibition result was “inactive”.

As a reminder, the inhibition is the share of the control response that was lost under treatment. The term EC50 denotes the midpoint of the concentration-response curve. What is called IC50 is the concentration that gives 50% inhibition.
